Source: patent US20120245137A1 (Zalicus Pharmaceuticals Ltd., priority 2009, published 2012)
pIC50: −log10 of the molar value.

Key:
[1] = molecular target: human α1G T-type channels (Homo sapiens, UniProt O43497); experiment: T-type calcium channel block, whole cell patch clamp, α1G; type: cell-based; settings: HEK cells stably expressing human α1G; mainly non-inactivated protocol; values above 10,000 nM represented as 10000
Method: (§1) T-type calcium channel blocking activity was assayed in human embryonic kidneycells, HEK 293 (Invitrogen), stably transfected with the T-type calcium channel subunits. Briefly, cells were cultured in Dulbecco's modified eagle medium (DMEM) supplemented with 10% fetal bovine serum, 200 U/ml penicillin, and 0.2 mg/mL streptomycin at 37° C. with 5% CO2. At 85% confluency, cells were split with 0.25% trypsin/1 mM EDTA and plated at 10% confluency on glass coverslips. At 12 hours, the medium was replaced, and the cells stably transfected using a standard calcium phosphate protocol and the appropriate calcium channel cDNA's. Fresh DMEM was supplied, and the cells transferred to 28° C./5% CO2.
(§2) Standard patch-clamp techniques were employed to identify blockers of T-type currents. Briefly, previously described HEK cell lines stably expressing human α1G, α1H, and α1I T-type channels were used for all the recordings (passage #: 4-20, 37° C., 5% CO2). Whole cell patch clamp experiments were performed using an Axopatch 200B amplifier (Axon Instruments, Burlingame, Calif.) linked to a personal computer equipped with pCLAMP software. Data were analyzed using Clampfit (Axon Instruments) and SigmaPlot 4.0 (Jandel Scientific). To obtain T-type currents, plastic dishes containing semi-confluent cells were positioned on the stage of a ZEISS AXIOVERT S100 microscope after replacing the culture medium with external solution (Table 2). Whole-cell patches were obtained using pipettes (borosilicate glass with filament, O.D.: 1.5 mm, I.D.: 0.86 mm, 10 cm length), fabricated on a SUTTER P-97 puller with resistance values of ˜5 MΩ (Table 3).
(§3) T-type currents were reliably obtained by using two voltage protocols: • “non-inactivating,” and • “inactivation.”
(§4) Test compounds were dissolved in external solution, 0.1-0.01% DMSO. After ˜10 minutes rest, they were applied by gravity close to the cell using a WPI microfil tubing. The “non-inactivated” pre-pulse was used to examine the resting block of a compound. The “inactivated” protocol was employed to study voltage-dependent block.

[2] = molecular target: human α1H T-type channels (Homo sapiens, UniProt O95180); experiment: T-type calcium channel block, whole cell patch clamp, α1H; type: cell-based; settings: HEK cells stably expressing human α1H; mainly non-inactivated protocol; values above 10,000 nM represented as 10000
human α1H T-type channels, sequence (O95180 whole entry): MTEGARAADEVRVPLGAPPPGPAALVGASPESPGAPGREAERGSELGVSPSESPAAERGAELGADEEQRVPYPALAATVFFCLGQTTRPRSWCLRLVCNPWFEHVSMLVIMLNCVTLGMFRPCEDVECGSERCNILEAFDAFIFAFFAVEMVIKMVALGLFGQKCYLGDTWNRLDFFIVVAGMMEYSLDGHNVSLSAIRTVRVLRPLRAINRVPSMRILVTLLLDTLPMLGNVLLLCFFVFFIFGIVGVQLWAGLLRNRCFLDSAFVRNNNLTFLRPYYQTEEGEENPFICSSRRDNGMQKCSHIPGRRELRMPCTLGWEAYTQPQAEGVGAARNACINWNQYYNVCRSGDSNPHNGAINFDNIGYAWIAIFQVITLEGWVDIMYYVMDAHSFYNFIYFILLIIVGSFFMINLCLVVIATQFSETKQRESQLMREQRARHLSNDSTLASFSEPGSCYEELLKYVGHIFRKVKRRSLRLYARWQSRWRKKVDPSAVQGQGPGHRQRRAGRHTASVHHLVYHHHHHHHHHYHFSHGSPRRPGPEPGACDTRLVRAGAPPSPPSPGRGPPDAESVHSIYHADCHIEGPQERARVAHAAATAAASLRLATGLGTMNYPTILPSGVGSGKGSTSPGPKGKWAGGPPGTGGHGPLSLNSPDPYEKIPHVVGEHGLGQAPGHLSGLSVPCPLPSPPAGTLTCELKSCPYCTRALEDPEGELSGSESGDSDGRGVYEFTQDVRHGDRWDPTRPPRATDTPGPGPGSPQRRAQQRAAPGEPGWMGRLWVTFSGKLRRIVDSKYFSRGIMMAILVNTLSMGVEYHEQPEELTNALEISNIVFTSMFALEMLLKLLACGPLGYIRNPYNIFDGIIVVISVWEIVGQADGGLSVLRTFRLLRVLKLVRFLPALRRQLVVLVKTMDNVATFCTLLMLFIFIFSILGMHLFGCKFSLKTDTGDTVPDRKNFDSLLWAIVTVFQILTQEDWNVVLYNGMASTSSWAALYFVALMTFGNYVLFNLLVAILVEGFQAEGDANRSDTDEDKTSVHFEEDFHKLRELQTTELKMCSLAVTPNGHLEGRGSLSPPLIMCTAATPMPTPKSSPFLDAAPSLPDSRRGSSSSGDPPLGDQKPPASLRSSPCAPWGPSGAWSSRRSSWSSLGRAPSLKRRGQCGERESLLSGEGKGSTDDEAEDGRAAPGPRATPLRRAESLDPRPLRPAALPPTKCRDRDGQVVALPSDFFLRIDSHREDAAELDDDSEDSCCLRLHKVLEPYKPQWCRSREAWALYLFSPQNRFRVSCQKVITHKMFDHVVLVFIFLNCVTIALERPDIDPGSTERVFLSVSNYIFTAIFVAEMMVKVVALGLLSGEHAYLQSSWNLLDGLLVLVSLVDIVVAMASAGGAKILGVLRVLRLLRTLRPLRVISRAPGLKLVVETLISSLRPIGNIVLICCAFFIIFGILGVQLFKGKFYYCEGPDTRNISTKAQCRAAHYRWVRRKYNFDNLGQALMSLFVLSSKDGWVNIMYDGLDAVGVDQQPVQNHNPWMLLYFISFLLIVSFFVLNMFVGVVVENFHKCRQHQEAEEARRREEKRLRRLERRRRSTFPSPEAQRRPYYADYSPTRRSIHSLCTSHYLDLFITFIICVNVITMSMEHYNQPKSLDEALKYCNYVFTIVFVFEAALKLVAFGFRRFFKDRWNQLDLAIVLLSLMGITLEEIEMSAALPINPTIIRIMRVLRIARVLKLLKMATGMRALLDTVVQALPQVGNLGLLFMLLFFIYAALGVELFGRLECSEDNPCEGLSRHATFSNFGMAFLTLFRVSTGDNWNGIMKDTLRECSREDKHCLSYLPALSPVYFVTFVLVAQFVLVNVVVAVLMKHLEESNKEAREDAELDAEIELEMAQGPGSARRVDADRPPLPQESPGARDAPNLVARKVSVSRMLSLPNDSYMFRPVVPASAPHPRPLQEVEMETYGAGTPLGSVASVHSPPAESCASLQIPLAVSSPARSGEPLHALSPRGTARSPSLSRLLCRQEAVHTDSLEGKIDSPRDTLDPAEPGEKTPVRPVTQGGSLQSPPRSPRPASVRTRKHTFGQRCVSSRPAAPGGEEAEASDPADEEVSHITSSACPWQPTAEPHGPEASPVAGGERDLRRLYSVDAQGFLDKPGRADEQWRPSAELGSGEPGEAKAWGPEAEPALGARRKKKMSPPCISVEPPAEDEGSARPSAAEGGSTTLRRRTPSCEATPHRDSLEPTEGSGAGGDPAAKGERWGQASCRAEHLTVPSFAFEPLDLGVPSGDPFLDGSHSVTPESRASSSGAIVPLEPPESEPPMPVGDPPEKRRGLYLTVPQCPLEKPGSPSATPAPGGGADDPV
Method: as §1, §2, §3, §4

human α1G T-type channels, sequence (O43497 whole entry): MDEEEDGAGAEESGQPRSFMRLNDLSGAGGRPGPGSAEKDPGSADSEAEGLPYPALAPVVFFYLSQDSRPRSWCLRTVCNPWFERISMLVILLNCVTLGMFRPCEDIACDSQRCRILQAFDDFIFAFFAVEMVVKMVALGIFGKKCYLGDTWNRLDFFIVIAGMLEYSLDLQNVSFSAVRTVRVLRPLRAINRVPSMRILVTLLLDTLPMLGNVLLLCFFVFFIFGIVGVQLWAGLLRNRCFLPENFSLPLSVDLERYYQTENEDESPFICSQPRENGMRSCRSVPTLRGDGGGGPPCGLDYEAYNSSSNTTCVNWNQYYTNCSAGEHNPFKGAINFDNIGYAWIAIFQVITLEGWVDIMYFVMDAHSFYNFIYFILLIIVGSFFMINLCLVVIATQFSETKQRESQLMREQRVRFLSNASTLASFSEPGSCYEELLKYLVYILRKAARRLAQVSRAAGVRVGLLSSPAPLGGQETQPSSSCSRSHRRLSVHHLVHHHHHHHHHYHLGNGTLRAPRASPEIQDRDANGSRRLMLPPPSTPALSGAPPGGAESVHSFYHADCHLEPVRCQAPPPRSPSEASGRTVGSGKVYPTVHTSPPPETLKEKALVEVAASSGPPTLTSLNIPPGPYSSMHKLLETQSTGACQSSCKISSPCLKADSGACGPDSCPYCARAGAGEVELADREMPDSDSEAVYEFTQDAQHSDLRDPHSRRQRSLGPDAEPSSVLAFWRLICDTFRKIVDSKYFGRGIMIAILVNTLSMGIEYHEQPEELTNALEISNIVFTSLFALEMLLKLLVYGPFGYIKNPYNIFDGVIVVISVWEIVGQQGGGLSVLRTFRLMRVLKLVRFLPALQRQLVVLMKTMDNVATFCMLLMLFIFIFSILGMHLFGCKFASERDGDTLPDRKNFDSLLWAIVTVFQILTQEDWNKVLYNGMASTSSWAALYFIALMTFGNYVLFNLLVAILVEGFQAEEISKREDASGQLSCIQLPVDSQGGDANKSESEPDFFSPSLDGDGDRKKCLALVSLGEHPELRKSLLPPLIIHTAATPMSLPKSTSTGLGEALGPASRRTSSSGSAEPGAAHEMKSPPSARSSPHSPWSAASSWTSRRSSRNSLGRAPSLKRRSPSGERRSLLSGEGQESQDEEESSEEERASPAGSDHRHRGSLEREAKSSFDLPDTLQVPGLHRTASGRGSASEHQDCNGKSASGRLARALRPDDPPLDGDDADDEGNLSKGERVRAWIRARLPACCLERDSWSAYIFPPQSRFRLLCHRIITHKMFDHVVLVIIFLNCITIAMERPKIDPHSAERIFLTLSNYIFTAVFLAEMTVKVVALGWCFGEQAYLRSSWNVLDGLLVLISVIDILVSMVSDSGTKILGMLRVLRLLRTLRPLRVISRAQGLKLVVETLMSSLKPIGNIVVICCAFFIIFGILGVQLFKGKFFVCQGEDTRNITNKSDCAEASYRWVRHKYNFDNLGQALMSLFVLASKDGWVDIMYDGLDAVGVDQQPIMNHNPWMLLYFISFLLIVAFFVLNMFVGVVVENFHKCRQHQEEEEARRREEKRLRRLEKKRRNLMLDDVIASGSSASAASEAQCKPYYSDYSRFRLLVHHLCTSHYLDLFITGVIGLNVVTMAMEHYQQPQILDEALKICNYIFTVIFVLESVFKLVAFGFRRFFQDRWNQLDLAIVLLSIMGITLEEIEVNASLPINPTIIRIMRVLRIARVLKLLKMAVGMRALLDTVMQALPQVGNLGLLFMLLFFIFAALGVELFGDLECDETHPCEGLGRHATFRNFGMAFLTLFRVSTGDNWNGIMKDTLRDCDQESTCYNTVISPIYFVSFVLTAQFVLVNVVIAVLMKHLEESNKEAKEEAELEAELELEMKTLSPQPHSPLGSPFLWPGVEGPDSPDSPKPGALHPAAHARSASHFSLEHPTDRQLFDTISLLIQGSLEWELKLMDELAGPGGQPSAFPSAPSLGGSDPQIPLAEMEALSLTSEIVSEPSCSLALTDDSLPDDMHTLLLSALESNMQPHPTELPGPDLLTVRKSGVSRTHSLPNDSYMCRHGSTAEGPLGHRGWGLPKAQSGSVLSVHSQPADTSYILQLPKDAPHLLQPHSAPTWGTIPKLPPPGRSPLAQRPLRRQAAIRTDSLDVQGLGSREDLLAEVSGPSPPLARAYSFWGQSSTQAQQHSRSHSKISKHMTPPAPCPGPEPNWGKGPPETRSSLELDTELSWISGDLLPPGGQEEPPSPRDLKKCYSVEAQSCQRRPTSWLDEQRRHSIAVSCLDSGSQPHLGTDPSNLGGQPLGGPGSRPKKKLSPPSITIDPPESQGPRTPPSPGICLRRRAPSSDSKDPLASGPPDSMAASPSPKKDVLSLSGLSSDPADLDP

SMILES	pIC50 [1]	pIC50 [2]
CN(C(=O)CNCCC(C)(C)S(=O)(=O)c1cccc(C(F)(F)F)c1)C(C)(C)C [Compound 473, N-tert-butyl-N-methyl-2-(3-methyl-3-(3-(trifluoromethyl)phenylsulfonyl)butylamino) acetamide]	6.17	5.03
CC(C)(CNC(=O)c1ccc(F)c(C(F)(F)F)c1)S(=O)(=O)c1cccc(C(F)(F)F)c1 [Compound 456, 4-fluoro-N-(2-methyl-2-(3-(trifluoromethyl)phenylsulfonyl)propyl)-3-(trifluoromethyl)benzamide]	6.15	6.04
CC(C)(CCS(=O)(=O)c1cccc(OC(F)(F)F)c1)S(=O)(=O)c1cccc(C(F)(F)F)c1 [Compound 463, 1-(3-methyl-3-(3-(trifluoromethyl)phenylsulfonyl)butylsulfonyl)-3-(trifluoromethoxy)benzene]	6.46	< 5.00
CC(C)(CNC(=O)c1ccc(F)c(Cl)c1)S(=O)(=O)c1cccc(C(F)(F)F)c1 [Compound 482, 3-chloro-4-fluoro-N-(2-methyl-2-(3-(trifluoromethyl)phenylsulfonyl)propyl) benzamide]	6.02	5.43
CC(C)(CCNC(=O)c1ccc(C(F)(F)F)cc1S(C)(=O)=O)S(=O)(=O)c1cccc(C(F)(F)F)c1 [Compound 469, N-(3-methyl-3-(3-(trifluoromethyl)phenylsulfonyl)butyl)-2-(methylsulfonyl)-4-(trifluoromethyl)benzamide]	6.37	5.30
CC(C)(CCNC(=O)c1ccc(F)cc1)S(=O)(=O)c1cccc(C(F)(F)F)c1 [Compound 468, 4-fluoro-N-(3-methyl-3-(3-(trifluoromethyl)phenylsulfonyl)butyl) benzamide]	6.46	5.31
CS(=O)(=O)c1nc(C(F)(F)F)ccc1C(=O)N[C@H]1CC[C@@](F)(S(=O)(=O)c2cccc(OC(F)(F)F)c2)CC1 [Compound 258, N-((1S,4S)-4-fluoro-4-(3-(trifluoromethoxy)phenylsulfonyl)cyclohexyl)-2-(methylsulfonyl)-6-(trifluoromethyl)nicotinamide]	5.13	< 5.00
CN(CCc1ccc(Cl)c(Cl)c1)C(=O)C(C)(C)S(=O)(=O)c1cccc(C(F)(F)F)c1 [Compound 453, N-(3,4-dichlorophenethyl)-N,2-dimethyl-2-(3-(trifluoromethyl)phenylsulfonyl)propanamide]	6.16	5.41
CC(C)(C)c1cc(C(=O)NCC(C)(C)S(=O)(=O)c2cccc(C(F)(F)F)c2)ccn1 [Compound 484, 2-tert-butyl-N-(2-methyl-2-(3-(trifluoromethyl)phenylsulfonyl)propyl) isonicotinamide]	6.28	5.17
CC(C)(C(=O)Nc1nc2cc(C(F)(F)F)ccc2[nH]1)S(=O)(=O)c1cccc(C(F)(F)F)c1 [Compound 458, 2-methyl-N-(5-(trifluoromethyl)-1H-benzo[d]imidazol-2-yl)-2-(3-(trifluoromethyl)phenylsulfonyl)propanamide]	6.05	5.72

Next, values leading:

pIC50 [1]	pIC50 [2]	SMILES
6.33	6.04	CC(C)(CNC(=O)c1ccc(Oc2ccc(F)cc2)cc1)S(=O)(=O)c1cccc(C(F)(F)F)c1 [Compound 521, 4-(4-fluorophenoxy)-N-(2-methyl-2-(3-(trifluoromethyl)phenylsulfonyl)propyl) benzamide]
6.77	5.21	CC(C)(CN[C@H]1CC[C@H](C(F)(F)F)CC1)S(=O)(=O)c1cccc(C(F)(F)F)c1 [Compound 517, (1R,4R)-N-(2-methyl-2-(3-(trifluoromethyl)phenylsulfonyl)propyl)-4-(trifluoromethyl)cyclo hexanamine]
6.33	< 5.00	CC(C)(CNS(=O)(=O)c1cccc2cccnc12)S(=O)(=O)c1cccc(C(F)(F)F)c1 [Compound 491, N-(2-methyl-2-(3-(trifluoromethyl)phenylsulfonyl)propyl)quinoline-8-sulfonamide]
6.34	< 5.00	CC(C)(CNS(=O)(=O)c1cccc2nsnc12)S(=O)(=O)c1cccc(C(F)(F)F)c1 [Compound 490]
7.10	5.62	CC(C)S(=O)(=O)c1cc(C(F)(F)F)cnc1C(=O)NCCC(C)(C)S(=O)(=O)c1cccc(C(F)(F)F)c1 [Compound 528, 3-(isopropylsulfonyl)-N-(3-methyl-3-(3-(trifluoromethyl)phenylsulfonyl)butyl)-5-(trifluoromethyl)picolinamide]
6.42	5.08	CC(C)(CCNC(=O)c1cn2ccc(C(F)(F)F)cc2n1)S(=O)(=O)c1cccc(C(F)(F)F)c1 [Compound 507, N-(3-methyl-3-(3-(trifluoromethyl)phenylsulfonyl)butyl)-7-(trifluoromethyl)imidazo[1,2-a]pyridine-2-carboxamide]
6.21	5.00	CC(C)(CNC(=O)c1cn2ccc(C(F)(F)F)cc2n1)S(=O)(=O)c1cccc(C(F)(F)F)c1 [Compound 505, N-(2-methyl-2-(3-(trifluoromethyl)phenylsulfonyl)propyl)-7-(trifluoromethyl)imidazo[1,2-a]pyridine-2-carboxamide]
6.11	5.01	CC(C)(CCNC(=O)c1ccc(Cl)cc1S(C)(=O)=O)S(=O)(=O)c1cccc(C(F)(F)F)c1 [Compound 529, 4-chloro-N-(3-methyl-3-(3-(trifluoromethyl)phenylsulfonyl)butyl)-2-(methylsulfonyl)benzamide]
6.62	5.53	CC(C)(CCNC(=O)c1cc(C(F)(F)F)nc(S(C)(=O)=O)c1)S(=O)(=O)c1cccc(C(F)(F)F)c1 [Compound 526, N-(3-methyl-3-(3-(trifluoromethyl)phenylsulfonyl)butyl)-2-(methylsulfonyl)-6-(trifluoromethyl)isonicotinamide]
6.47	5.51	CC(C)(CNS(=O)(=O)c1ccc2c(c1)OCO2)S(=O)(=O)c1cccc(C(F)(F)F)c1 [Compound 500, N-(2-methyl-2-(3-(trifluoromethyl)phenylsulfonyl)propyl)benzo[d] [1,3]dioxole-5-sulfonamide]
6.48	< 5.00	COc1cc(C(=O)N(C)CCC(C)(C)S(=O)(=O)c2cccc(C(F)(F)F)c2)cc(Cl)n1 [Compound 512, 2-chloro-6-methoxy-N-methyl-N-(3-methyl-3-(3-(trifluoromethyl)phenylsulfonyl)butyl) isonicotinamide]
7.05	6.00	CC(C)(C)c1ccc(S(=O)(=O)NCC(C)(C)S(=O)(=O)c2cccc(C(F)(F)F)c2)cc1 [Compound 499, 4-tert-butyl-N-(2-methyl-2-(3-(trifluoromethyl)phenylsulfonyl)propyl) benzenesulfonamide]
5.79	< 5.00	O=C(N[C@H]1CC[C@@](F)(S(=O)(=O)c2cccc(C(F)(F)F)c2)CC1)[C@@H]1CCCCN1 [Compound 532, (S)-N-((1S,4R)-4-fluoro-4-(3-(trifluoromethyl)phenylsulfonyl)cyclohexyl) piperidine-2-carboxamide]
6.96	6.33	CC(C)(CCNC(=O)c1ccc(Oc2ccc(F)cc2)cc1)S(=O)(=O)c1cccc(C(F)(F)F)c1 [Compound 520, 4-(4-fluorophenoxy)-N-(3-methyl-3-(3-(trifluoromethyl)phenylsulfonyl)butyl) benzamide]
